What was measured:
HIV-strain pNL4-3 = assay: HIV-1 replication in acutely infected PBMC (CA-p24 ELISA); assay type: cell-based; conditions: 2.8 μM
Description: Experiments were conducted to assess the effect of the compounds of the instant invention on HIV-1 replication in acutely infected T cells. Peripheral blood mononuclear cells (PBMC) were obtained from non-HIV-1, non-HIV-2, non-Hepatitis B/C infected donors, stimulated with phytohemagglutinin-M and grown in culture media supplemented with 10 U/mL interleukin-2. The activated PBMC were infected with […] (Low Titre) and 100 ng (High Titre) of CA-p24 equivalents of the HIV-strain pNL4-3. Cells were infected for two hr after which, the virus was removed and the cells were washed with culture media. Equivalent numbers of cells were seeded into 24 well plates and compounds were added to the cultured cells that included: TPA at 8 riM and 80 nM, Ingenol at 280 nM, PEP003 at 500 nM, 50 nM and 5 nM, or PEP004 at dilutions of 1×10^4 and 1×10^5 from the stock (final concentrations). In addition, uninfected activated PBMC were grown in the presence of TPA (80 nM), Ingenol (280 nM), PEP003 (500 nM) and PEP004 (1×10^4 dilution). Other cultures were neither infected nor treated with any compound, or infected but not treated with any compound. Supernatant was removed from each culture at day 0, 3, 7, and 10. The amount of HIV-1 CA-p24 was determined using a commercially available ELISA assay. Three independent experiments were performed.

PKCγ = molecular target: T1, PKCγ (Homo sapiens, UniProt P05129); assay: EGFP-PKC isoform translocation in HeLa cells; assay type: cell-based
T1 construct: host or cells: HeLa cells
Description: (§1) Five EGFP-PKC isoforms (Clontech) were available for this experiment, enabling the screening of the three predominant PKC families (i.e. classical, novel and atypical PKCs). The members of the various PKC families are α, β, and γ (classical), θ (novel) and ζ (atypical).
(§2) HeLa cells were plated out in a 24-well plate containing coverslips and transfected with PKC isoforms fused to EGFP, using a commercially available effectine-transfection kit (QIAGEN, Pty. Ltd.). Cells were exposed to the transfection reagents for 16-24 hr. Subsequently, transfected cells were treated for one hour with TPA (100 ng/mL), bryostatin-1 (5 pg/mL), PEP003 (2.25 μg/mL; 5 μM) or PEP005 ([…]) 1.5 μM). Following treatment, cells were fixed on coverslips and mounted on glass slides. The slides were subsequently examined visually by fluorescence microscopy, photographed, and over 150 cells were counted/treatment/PKC isoform. Counted cells were classified according to the localisation of the PKC-EGFP fluorescence as either cytoplasmic or plasma membrane using ImagePro™ 4.1 (FIG. 5). […] The number of these cells was also counted. Results are presented as an average and standard deviation of percentages of cells (Table 1).

PKCθ = molecular target: T2, PKCθ (Homo sapiens, UniProt Q04759); assay: EGFP-PKC isoform translocation in HeLa cells; assay type: cell-based; conditions: one hour, TPA 100 ng/mL, bryostatin-1 5 pg/mL, PEP003 2.25 μg/mL (5 μM), PEP005 670 μg/mL (1.5 μM)
T2 construct: host or cells: HeLa cells
Description: as §1, §2

PKCβ = molecular target: T3, PKCβ (Homo sapiens, UniProt P05771); assay: EGFP-PKC isoform translocation in HeLa cells; assay type: cell-based; conditions: for number of PKCβ transfected cells with Golgi-like fluorescence: one hour treatment; for translocation of PKCβ to the plasma membrane: one hour, TPA 100 ng/mL, bryostatin-1 5 pg/mL, PEP003 2.25 μg/mL (5 μM), PEP005 670 μg/mL (1.5 μM)
T3 construct: host or cells: HeLa cells
Description: as §1, §2

PKCζ = molecular target: T4, PKCζ (Homo sapiens, UniProt Q05513); assay: EGFP-PKC isoform translocation in HeLa cells; assay type: cell-based; conditions: one hour, TPA 100 ng/mL, bryostatin-1 5 pg/mL, PEP003 2.25 μg/mL (5 μM), PEP005 670 μg/mL (1.5 μM)
T4 construct: host or cells: HeLa cells
T4 sequence (Q05513 1-592): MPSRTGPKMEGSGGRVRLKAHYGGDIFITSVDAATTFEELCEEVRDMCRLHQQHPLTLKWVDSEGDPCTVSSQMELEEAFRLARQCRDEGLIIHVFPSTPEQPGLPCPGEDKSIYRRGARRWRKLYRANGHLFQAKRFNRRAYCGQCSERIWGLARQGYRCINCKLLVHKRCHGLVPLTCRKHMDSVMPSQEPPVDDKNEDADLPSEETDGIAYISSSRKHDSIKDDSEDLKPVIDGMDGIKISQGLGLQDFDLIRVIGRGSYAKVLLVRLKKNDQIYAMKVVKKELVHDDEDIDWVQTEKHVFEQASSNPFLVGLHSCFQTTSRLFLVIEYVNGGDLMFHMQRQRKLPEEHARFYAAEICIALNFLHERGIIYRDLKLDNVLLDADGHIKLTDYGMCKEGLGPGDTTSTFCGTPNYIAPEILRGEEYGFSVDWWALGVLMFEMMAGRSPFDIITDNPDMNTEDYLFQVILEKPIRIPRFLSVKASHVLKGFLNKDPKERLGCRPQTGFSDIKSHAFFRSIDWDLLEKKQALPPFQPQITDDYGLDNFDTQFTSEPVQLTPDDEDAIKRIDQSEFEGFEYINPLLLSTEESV
Description: as §1, §2

PKCα = molecular target: T5, PKCα (Homo sapiens, UniProt P17252); assay type: cell-based; conditions: HeLa
T5 construct: host or cells: HeLa cells
Description: as §1
as §2, with “counted.” for “counted. Results are presented as an average and standard deviation of percentages of cells (Table 1).”

[1] = tested on: peripheral blood mononuclear cells (PBMCs); assay: Phagocytosis with fluorescent beads; assay type: cell-based; conditions: whole heparinized blood, 30 min at 37° C.
Description: Phagocytosis by peripheral blood mononuclear cells (PBMCs) was assayed (Steinkamp et al., 1982) using 1 μm Fluoresbrite™ yellow-green fluorescent latex spheres (Polysciences, Inc., Warrington, Pa.). A sample of whole, heparinized blood was treated with drug and 5×10E7 fluorescent latex beads in 10 μL of PBS added per mL of suspension. Cells were incubated and maintained in suspension for 30 min by means of a shaker platform at 37° C. The stirnulated and non-stimulated samples were then lysed to isolate PBMCs. The PBMCs were run on the flow cytometer measuring FITC (excitation at 488 nm, emission at 525±20 nm), gated for fluorescence (phagocytosed spheres) and light scatter (cell size).

adenovirus 5 = assay: Adenovirus 5 replication in human melanoma cells; assay type: cell-based; conditions: 2 days
Description: Human melanoma cells were infected with ten-fold dilutions of adenovirus 5 in culture, treated with dilutions of PEP005, PEP006, PEP008 and PEP010 and adenovirus replication determined 2 days later by immunhistochemical detection of virus-replicating cells.

[2] = tested on: MM96L human melanoma cells; assay: Leukocyte killing of tumor cells, [3H]-thymidine labelling; assay type: cell-based; conditions: 100:1 effector:target, 48 hr
Description: (§3) Leukocytes obtained by lysis of human peripheral blood were added to 5000 MM96L human melanoma cells or 7000 neonatal foreskin fibroblasts per microtitre well at effector: target ratios of 1000, 100 and 10:1. Ing9 (60 ng/mL) was added and after 48 hr incubation the cultures were washed and labelled with [3H]-thymidine for 2 hr. […] Untreated leukocytes had no effect on cell survival.
as §3, with “The target cells had been treated with 60 ng/mL PEP008 for 20 hr beforehand,” for “Ing9 (60 ng/mL) was added”, “washed and the medium replaced before the leukocytes were added. After” for “after”, “incubation with the leukocytes” for “incubation”

[3] = tested on: neonatal foreskin fibroblasts; assay: Leukocyte killing of normal cells, [3H]-thymidine labelling; assay type: cell-based, human; conditions: 100:1 effector:target, 48 hr
Description: as §3
as §3, with “The target cells had been treated with 60 ng/mL PEP008 for 20 hr beforehand,” for “Ing9 (60 ng/mL) was added”, “washed and the medium replaced before the leukocytes were added. After” for “after”, “incubation with the leukocytes” for “incubation”

[4] = tested on: Peripheral blood mononuclear cells (PBMC); assay: Respiratory burst (H2O2) in PBMC, DCFH-DA flow cytometry; assay type: cell-based
Description: Experiments were also carried out using 2′,7′-dichlorofluorescein diacetate (DCFH-DA) to measure the production of H2O2.(J P Robinson, Oxidative burst methods, in Handbook of Flow Cytometry Methods, Wiley-Liss Inc, pp147-149, 1993). H2O2 oxidizes the non-fluorescent probe (DCFH-DA) to a fluorescent probe that can then be detected by a flow cytometer. Peripheral blood mononuclear cells (PBMC) were extracted from a donor blood sample by lysis of heparinized blood and used in a suspension of 1×10^6/mL of phosphate buffer, pH 7.3. The cells were then incubated with DCFH-DA (1 μL/mL of 20 mM stock) for 15 minutes to allow it to be taken up and trapped by hydrolysis with cellular esterases. The cells were then stimulated by test compounds for 15 min at 37° C. Controls included in the experiment were unloaded control (cells with no DCFH-DA) and loaded control (cells with DCFH-DA, but no stimulation). These were used to monitor the non-specific oxidation of unstimulated cells. The cells were then analyzed on the flow cytometer (excitation at 488 nm, emission at 525±20 nm), gating each sample for individual cell populations-granulocytes, monocytes and lymphocytes (Table 3).

MM96L cells = assay: Effect of Euphorbiaceae saps on MM96L cells (cytotoxicity, bipolar dendritic phenotype); assay type: cell-based; conditions: 1 μg/mL or 10 μg/mL
Description: Sap was collected from Synadenium grantii, Synadenium compactum, Mondenium lugardae, Mondenium guentheri, Endadenium gossweileni, and E. peplus and serially diluted ten-fold up to 10^−7into sterile 1.5 mL Eppendorf™ tubes using growth medium. […] After 3 days, cells were examined for cytotoxicity or differentiation to a bipolar dendritic phenotype.

[5] = tested on: phorbol ester binding site of PKC; assay: [3H]-phorbol dibutyrate competition assay on rat brain homogenate
Description: A competition assay was performed to determine whether the diterpene esters of the instant invention bind to the phorbol ester binding site of PKC. […] This binding was not blocked by co-incubation with bisindolylmaleimide.

rat brain PKC = assay: PepTag non-radioactive PKC kinase activity assay; conditions: FIG. 1; TPA 100-0.01 ng/ml; ether extract final dilution 1 in 5; aqueous layer and crude sap diluted 1/25
Description: The kinase activity of rat brain PKC (Promega) was determined using the Peptag™ Non-Radioactive Protein Kinase Kit (Promega). Using agarose gel electrophoresis the technique visualises the opposing electrostatic charge of a fluorescently labeled peptide ([sequence]) compared to the phosphorylated version of the same peptide.
The reaction mixture was separated by gel electrophoresis, showing migration of the unreacted substrate (a) to the anode (top), and the product (b), which is more negatively charged because of phosphorylation by PKC, moving towards the cathode (bottom).

[6] = target cells pre-treated with 60 ng/mL for 20 hr, washed

T3 sequence (P05771 whole entry, species assumed, canonical isoform): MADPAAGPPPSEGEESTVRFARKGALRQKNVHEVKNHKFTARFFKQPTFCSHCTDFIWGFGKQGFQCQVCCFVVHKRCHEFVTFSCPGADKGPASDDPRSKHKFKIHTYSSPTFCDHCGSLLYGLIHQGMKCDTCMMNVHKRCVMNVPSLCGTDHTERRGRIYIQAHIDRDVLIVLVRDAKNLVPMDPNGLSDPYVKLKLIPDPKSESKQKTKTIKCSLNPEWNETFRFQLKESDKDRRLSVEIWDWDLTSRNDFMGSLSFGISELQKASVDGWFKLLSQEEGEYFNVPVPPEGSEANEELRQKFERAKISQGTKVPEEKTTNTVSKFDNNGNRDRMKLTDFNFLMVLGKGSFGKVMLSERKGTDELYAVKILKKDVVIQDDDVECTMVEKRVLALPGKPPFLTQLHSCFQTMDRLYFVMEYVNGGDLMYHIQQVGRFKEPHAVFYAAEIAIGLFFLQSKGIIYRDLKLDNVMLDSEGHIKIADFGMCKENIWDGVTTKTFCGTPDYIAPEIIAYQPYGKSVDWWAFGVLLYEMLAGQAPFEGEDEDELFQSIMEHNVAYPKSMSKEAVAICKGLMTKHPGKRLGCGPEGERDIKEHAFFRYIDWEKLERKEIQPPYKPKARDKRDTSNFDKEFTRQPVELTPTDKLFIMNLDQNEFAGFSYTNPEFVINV
T2 sequence (Q04759 whole entry, canonical isoform): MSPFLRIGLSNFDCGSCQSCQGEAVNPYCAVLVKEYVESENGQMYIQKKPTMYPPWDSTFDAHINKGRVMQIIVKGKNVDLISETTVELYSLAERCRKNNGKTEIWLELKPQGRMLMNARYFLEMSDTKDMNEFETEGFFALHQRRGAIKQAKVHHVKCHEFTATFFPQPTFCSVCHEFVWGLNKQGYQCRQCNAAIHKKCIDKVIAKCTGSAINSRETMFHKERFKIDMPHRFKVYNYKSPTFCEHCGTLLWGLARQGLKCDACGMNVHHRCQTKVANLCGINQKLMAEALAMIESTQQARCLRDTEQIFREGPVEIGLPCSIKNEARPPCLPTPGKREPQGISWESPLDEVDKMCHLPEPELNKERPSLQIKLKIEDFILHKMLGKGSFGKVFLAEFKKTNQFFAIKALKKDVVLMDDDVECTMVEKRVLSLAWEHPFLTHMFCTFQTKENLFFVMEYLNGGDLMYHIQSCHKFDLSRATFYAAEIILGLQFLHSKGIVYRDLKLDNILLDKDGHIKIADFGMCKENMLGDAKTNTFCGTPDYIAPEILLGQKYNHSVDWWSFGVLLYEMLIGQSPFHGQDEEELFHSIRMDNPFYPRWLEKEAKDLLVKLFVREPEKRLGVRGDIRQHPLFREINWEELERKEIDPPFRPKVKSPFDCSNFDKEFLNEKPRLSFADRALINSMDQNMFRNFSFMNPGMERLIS

CC1=C[C@]23C(=O)[C@@H](C=C(CO)[C@@H](O)[C@]2(O)[C@H]1O)[C@H]1[C@@H](C[C@H]3C)C1(C)C [Ingenol]
reduction of HIV-1 replication rate (HIV-strain pNL4-3): approximately 35%

C/C=C(/C)C(=O)O[C@H]1C(C)=C[C@]23C(=O)[C@@H](C=C(CO)[C@@H](O)[C@]12O)[C@H]1[C@@H](C[C@H]3C)C1(C)C [PEP005, 20-hydroxy-ingenol-3-angelate]
number of PKCγ transfected cells displaying Golgi-like fluorescence (PKCγ; one hour treatment): increase in the number of cells displaying Golgi-like fluorescence | translocation of PKCγ to the plasma membrane (PKCγ; one hour, TPA 100 ng/mL, bryostatin-1 5 pg/mL, PEP003 2.25 μg/mL (5 μM), PEP005 670 μg/mL (1.5 μM)): translocated from the cytoplasm to the plasma membrane | translocation of PKCθ (PKCθ): does not induce any change | number of PKCβ transfected cells with Golgi-like fluorescence (PKCβ): decreases the number of cells with PKCβ concentrated in the Golgi | translocation of PKCβ to the plasma membrane (PKCβ): translocated from the cytoplasm to the plasma membrane | translocation of PKCζ (PKCζ): fail to induce translocation | number of PKCα transfected cells displaying Golgi-like fluorescence (PKCα; one hour treatment): increase in the number of cells displaying Golgi-like fluorescence | translocation of PKCα to the plasma membrane (PKCα; one hour, TPA 100 ng/mL, bryostatin-1 5 pg/mL, PEP003 2.25 μg/mL (5 μM)): translocated from the cytoplasm to the plasma membrane | stimulation of phagocytosis of fluorescent latex beads [1]: stimulate phagocytosis in PBMCs | increase of adenovirus replication (number of stained cells) (adenovirus 5; 67 ng/mL): 344%

C/C=C(/C)C(=O)O[C@H]1C(C)=C[C@]23C(=O)[C@@H](C=C(CO)[C@@H](O)[C@]12O)[C@H]1[C@@H](C[C@H]3C)C1(C)C [PEP006, Ingenol-3-angelate]
stimulation of phagocytosis of fluorescent latex beads [1]: stimulate phagocytosis in PBMCs | increase of adenovirus replication (number of stained cells) (adenovirus 5; 295 ng/mL): 256%

C/C=C(/C)C(=O)O[C@H]1C(C)=C[C@]23C(=O)[C@@H](C=C(COC(C)=O)[C@@H](O)[C@]12O)[C@H]1[C@@H](C[C@H]3C)C1(C)C [PEP008, 20-O-acetyl-ingenol-3-angelate]
survival of melanoma cells ([2]; 60 ng/mL added with leukocytes): 9% | survival of melanoma cells [2, 6]: 12% | stimulation of phagocytosis of fluorescent latex beads [1]: stimulate phagocytosis in PBMCs | increase of adenovirus replication (number of stained cells) (adenovirus 5; 226 ng/mL): 248% | survival of normal fibroblasts ([3]; 60 ng/mL added with leukocytes): 100% | survival of normal fibroblasts [3, 6]: 100%

CCC/C=C/C=C/C(=O)O[C@H]1/C(=C/C(=O)OC)C[C@H]2C[C@H]([C@@H](C)O)OC(=O)C[C@H](O)C[C@@H]3C[C@H](OC(C)=O)C(C)(C)[C@](O)(C[C@@H]4C/C(=C/C(=O)OC)C[C@H](/C=C/C(C)(C)[C@]1(O)O2)O4)O3 [bryostatin-1]
translocation of PKCθ (PKCθ): translocated | number of PKCβ transfected cells with Golgi-like fluorescence (PKCβ): decreases the number of cells with PKCβ concentrated in the Golgi | translocation of PKCβ to the plasma membrane (PKCβ): but not with bryostatin-1 | translocation of PKCζ (PKCζ): fail to induce translocation | induction of a respiratory burst (H2O2, DCFH-DA) ([4]; 15 min at 37° C., granulocytes, monocytes, lymphocytes): All compounds except Bryostatin induced a respiratory burst

bisindolylmaleimide
block of the respiratory burst by PKC inhibitor ([4]; 10 μg/mL or 1 μg/mL, added at the same time as test compounds): blocked the respiratory burst | effect of PKC inhibitor on sap-induced differentiation of MM96L cells (MM96L cells): this differentiation is inhibited | binding to the phorbol ester binding site of PKC [5]: does not

phosphatidyl serine
activation of PKC (phosphorylation of fluorescent PepTag substrate) (rat brain PKC): strong activation
